Data set [1] relates to reserpine-induced depression. Kind of data set: protection from reserpine-induced depression (ptosis) in mice. The class given is in vivo. The settings on record: for ED50: Mus musculus, 0.75 h; for antidepressant activity (in words): mean effective dose not calculated for the compounds of b45-b48. Here is the method:
Separate groups of mice of the same origin and past history (5 mice per group) were administered 2-(2-(2-chlorophenyl)hydrazino)-4,5-dihydro-1H-imidazole monohydrochloride in an aqueous carrier. Different groups were administered the compound by intraperitoneal injection at various dosage rates. Thirty minutes after the administration of the test compound, the mice were administered reserpine at a dosage rate of 2.5 milligrams per kilogram by intraperitoneal injection. Separate groups of similar mice were similarly administered 2.5 milligrams of reserpine per kilogram 30 minutes after administration of various dosages of the known antidepressant. The mice were then observed for 45 minutes for symptoms of reserpine-induced depression.
Protection from reserpine-induced depression is indicated by the absence of the characteristic ptosis.
The results were employed to calculate the dose effective to protect 50 percent of the mice (ED50) by classical, statistical procedures.
The procedure of Example 1 was repeated using oral administration of 2-(2-(2-chlorophenyl)hydrazino)-4,5-dihydro-1H-imidazole monohydrochloride instead of intraperitoneal injection.
Using the general procedure outlined above, the ED50 's were calculated for other compounds showing antidepressant properties. These compounds are represented by the general formula [drawing 2]

A short description of data set [2]: intraperitoneal acute 50 percent lethal dose. The following applies: mouse, in vivo, ip.
The mark [3] stands for this setting: Table I, oral, read-out: ORAL ED50.
Where [4] appears, read: ip, Table I, intraperitoneal, read-out: Intraperitoneal ED50.

Read-outs that look alike come from different tables or passages of the source.

Take `Cl.Clc1ccccc1NNC1=NCCN1` [Example 1, 2-(2-(2-chlorophenyl)hydrazino)-4,5-dihydro-1H-imidazole monohydrochloride]: the ED50 in data set [1] (oral administration, reserpine 2.5 mg/kg i.p., read-out: oral ED50) was 2 mg/kg; in data set [1] (ip, intraperitoneal, 30 minutes before reserpine 2.5 mg/kg i.p., read-out: ED50 (dose effective to protect 50 percent of the mice)), less than 10 mg/kg. For the same compound, the “antidepressant activity (in words)” value in data set [1] is reported as “particularly active as antidepressants”. Moreover, the LD50 in data set [2] worked out at 167 mg/kg.
In the case of `Fc1ccccc1NNC1=NCCN1.I` [Example 3, 2-((2-fluorophenyl)hydrazino)-4,5-dihydro-1H-imidazole monohydriodide], the results for the ED50 in data set [1] (setting [3]) and in data set [1] (setting [4]) were 1 mg/kg and less than 10 mg/kg, respectively. The “antidepressant activity (in words)” value in data set [1] is recorded as “particularly active as antidepressants”.
`CN1CCN=C1NNc1ccccc1F` [Example 4]: the ED50 in data set [1] (setting [3]) was 27 mg/kg; in data set [1] (setting [4]) it was 37 mg/kg.
In the same order, the values of `Fc1ccccc1NNC1=NCCCN1` [Example 5] are 43 mg/kg and 37 mg/kg.
In the case of `CN1CCN=C1NNc1ccc(Cl)cc1Cl` [Example 6], the ED50 in data set [1] (setting [4]) was 43 mg/kg.

Usually ED50 stands for the dose that gives a 50% effect, or the effect in half of the subjects. Broadly, the LD50 is the dose at which mortality reaches 50%.
